Test results taken from ChEMBL document CHEMBL1201862, “PubChem BioAssay data set” (2004).
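Protocol summary: plate cells (96-well), add compound at 5 concentrations, incubate 48 h, interpolate endpoints linearly. The concentration for 50% growth inhibition is given as GI50.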 Active and inactive are the calls of the source. Rule as the data show it: active = GI50 up to about 1.1 µM and inactive = higher.

Assays:
Assay in all cases: NCI-60 cell line screen, 48 h
[1] = tested on: MCF7
[2] = tested on: UO-31
[3] = tested on: MOLT-4
[4] = tested on: NCI-H460
[5] = tested on: NCI-H522
[6] = tested on: SF-539
[7] = tested on: T47D
[8] = tested on: SNB-75
[9] = tested on: COLO 205
[10] = tested on: MDA-MB-435
[11] = tested on: HOP-92
[12] = tested on: ACHN
[13] = tested on: M14
[14] = tested on: Malme-3M
[15] = tested on: EKVX
[16] = tested on: UACC-62
[17] = tested on: PC-3
[18] = tested on: K562
[19] = tested on: CCRF-CEM
[20] = tested on: SNB-19
[21] = tested on: HCT-116
[22] = tested on: NCI-H23
[23] = tested on: SW-620
[24] = tested on: 786-0
[25] = tested on: MDA-N
[26] = tested on: A498
[27] = tested on: U-251
[28] = tested on: NCI-H226
[29] = tested on: OVCAR-3
[30] = tested on: CAKI-1
[31] = tested on: MDA-MB-231
[32] = tested on: RXF 393
[33] = tested on: IGROV-1
[34] = tested on: A549
[35] = tested on: HOP-62
[36] = tested on: Hs-578T
[37] = tested on: OVCAR-4
[38] = tested on: SF-268
[39] = tested on: SK-OV-3
[40] = tested on: HCC 2998
[41] = tested on: OVCAR-5
[42] = tested on: SF-295
[43] = tested on: SR
[44] = tested on: DU-145
[45] = tested on: SN12C
[46] = tested on: HT-29
[47] = tested on: KM12
[48] = tested on: TK-10
[49] = tested on: UACC-257
[50] = tested on: HL-60
[51] = tested on: OVCAR-8
[52] = tested on: BT-549
[53] = tested on: SK-MEL-28
[54] = tested on: SK-MEL-5
[55] = tested on: RPMI-8226
[56] = tested on: HCT-15
[57] = tested on: NCI/ADR-RES
[58] = tested on: LOX IMVI
[59] = tested on: SK-MEL-2

Structure (SMILES): CCCCCCCC(CC(=O)NC(CO)C(=O)NC(CO)CC(C)C)OC(=O)CC(CCCCCCC)OC(=O)CC(CCCCCCC)OC1OC(C)C(O)C(OC2OC(C)C(O)C(OC(C)=O)C2O)C1O (centres undefined)
- GI50 [1]: 11.9 µM (inactive)
- GI50 [2]: 14.9 µM (inactive)
- GI50 [3]: 2.81 µM (inactive)
- GI50 [4]: 13.3 µM (inactive)
- GI50 [5]: 15 µM (inactive)
- GI50 [6]: 12.1 µM (inactive)
- GI50 [7]: 12.9 µM (inactive)
- GI50 [8]: 5.56 µM (inactive)
- GI50 [9]: 5.86 µM (inactive)
- GI50 [10]: 11 µM (inactive)
- GI50 [11]: 10.9 µM (inactive)
- GI50 [12]: 17.2 µM (inactive)
- GI50 [13]: 10.7 µM (inactive)
- GI50 [14]: 16 µM (inactive)
- GI50 [15]: 15.3 µM (inactive)
- GI50 [16]: 12.9 µM (inactive)
- GI50 [17]: 7.6 µM (inactive)
- GI50 [18]: 12.4 µM (inactive)
- GI50 [19]: 5.2 µM (inactive)
- GI50 [20]: 6.43 µM (inactive)
- GI50 [21]: 13.1 µM (inactive)
- GI50 [22]: 14.2 µM (inactive)
- GI50 [23]: 14.9 µM (inactive)
- GI50 [24]: 13.4 µM (inactive)
- GI50 [25]: 5.41 µM (inactive)
- GI50 [26]: 13.2 µM (inactive)
- GI50 [27]: 4.2 µM (inactive)
- GI50 [28]: 17.4 µM (inactive)
- GI50 [29]: 10.7 µM (inactive)
- GI50 [30]: 15.7 µM (inactive)
- GI50 [31]: 11.3 µM (inactive)
- GI50 [32]: 8.34 µM (inactive)
- GI50 [33]: 12.3 µM (inactive)
- GI50 [34]: 12.5 µM (inactive)
- GI50 [35]: 12.2 µM (inactive)
- GI50 [36]: 4.1 µM (inactive)
- GI50 [37]: 12.8 µM (inactive)
- GI50 [38]: 12 µM (inactive)
- GI50 [39]: 17 µM (inactive)
- GI50 [40]: 11.2 µM (inactive)
- GI50 [41]: 11.7 µM (inactive)
- GI50 [42]: 15.8 µM (inactive)
- GI50 [43]: 3.27 µM (inactive)
- GI50 [44]: 10.4 µM (inactive)
- GI50 [45]: 7.05 µM (inactive)
- GI50 [46]: 7.8 µM (inactive)
- GI50 [47]: 8.99 µM (inactive)
- GI50 [48]: 15.6 µM (inactive)
- GI50 [49]: 5.77 µM (inactive)
- GI50 [50]: 5.69 µM (inactive)
- GI50 [51]: 13.9 µM (inactive)
- GI50 [52]: 6.47 µM (inactive)
- GI50 [53]: 12.2 µM (inactive)
- GI50 [54]: 12.6 µM (inactive)

Structure (SMILES): Cc1ccc(Cc2n[nH]c(=O)n2Nc2ccccc2)cc1
- GI50 [1]: > 100 µM (inactive)
- GI50 [55]: > 100 µM (inactive)
- GI50 [2]: 68.2 µM (inactive)
- GI50 [3]: > 100 µM (inactive)
- GI50 [4]: > 100 µM (inactive)
- GI50 [5]: > 100 µM (inactive)
- GI50 [6]: > 100 µM (inactive)
- GI50 [7]: 89.9 µM (inactive)
- GI50 [9]: > 100 µM (inactive)
- GI50 [10]: > 100 µM (inactive)
- GI50 [11]: 65.2 µM (inactive)
- GI50 [12]: > 100 µM (inactive)
- GI50 [14]: > 100 µM (inactive)
- GI50 [15]: 81.5 µM (inactive)
- GI50 [16]: > 100 µM (inactive)
- GI50 [18]: > 100 µM (inactive)
- GI50 [19]: > 100 µM (inactive)
- GI50 [20]: > 100 µM (inactive)
- GI50 [21]: > 100 µM (inactive)
- GI50 [22]: > 100 µM (inactive)
- GI50 [56]: > 100 µM
- GI50 [23]: > 100 µM (inactive)
- GI50 [24]: > 100 µM (inactive)
- GI50 [25]: > 100 µM (inactive)
- GI50 [26]: > 100 µM (inactive)
- GI50 [27]: > 100 µM (inactive)
- GI50 [57]: > 100 µM (inactive)
- GI50 [28]: > 100 µM (inactive)
- GI50 [29]: > 100 µM (inactive)
- GI50 [30]: > 100 µM (inactive)
- GI50 [31]: > 100 µM (inactive)
- GI50 [33]: > 100 µM (inactive)
- GI50 [34]: > 100 µM (inactive)
- GI50 [35]: > 100 µM (inactive)
- GI50 [36]: > 100 µM (inactive)
- GI50 [37]: > 100 µM (inactive)
- GI50 [38]: > 100 µM (inactive)
- GI50 [39]: > 100 µM (inactive)
- GI50 [58]: > 100 µM (inactive)
- GI50 [40]: > 100 µM (inactive)
- GI50 [41]: > 100 µM (inactive)
- GI50 [42]: > 100 µM (inactive)
- GI50 [43]: > 100 µM (inactive)
- GI50 [44]: > 100 µM (inactive)
- GI50 [45]: > 100 µM (inactive)
- GI50 [46]: > 100 µM (inactive)
- GI50 [47]: > 100 µM (inactive)
- GI50 [59]: > 100 µM (inactive)
- GI50 [48]: > 100 µM (inactive)
- GI50 [49]: > 100 µM (inactive)
- GI50 [50]: > 100 µM (inactive)
- GI50 [51]: > 100 µM (inactive)
- GI50 [52]: > 100 µM (inactive)
- GI50 [53]: 92.3 µM (inactive)
- GI50 [54]: > 100 µM (inactive)
